Measured values from patent US8877206B2, “Stimulation of an immune response by cationic lipids” (PDS Biotechnology Corporation, priority 2007, dated 2014).
Where two headings read alike, the source gives them in different places.

Tests used:
BMDC [1] = assay: CCL2 release from BMDC (ELISA); type: cell-based, C57BL/6 mice
DC2.4 dendritic cells = settings: cited from earlier work; for Potency to stimulate expression of CD 80 vs lipids with longer or saturated acyl chains: ethyl phosphocholine head group lipids, FIG. 14B; for Expression of CD80/CD86: FIG. 14A, disclosed in U.S. Pat. No. 7,303,881
[2] = system: draining lymph node cells; assay: Uptake of NBD-DOTAP and dendritic cell activation/migration to the draining lymph node; type: in vivo, mice
Description: Naïve mice (n=4-6) were injected with PBS control (FIGS. 7 A, C and E) or DOTAP/E7 containing 100 nmols total lipid with 0.5% 1-Oleoyl-2-[6-[(7-nitro-2-1,3-benzoxadiazol-4-yl)amino]hexanoyl]-3-trimethylammonium propane] (“NBD-DOTAP”) (FIGS. 7 B, D, and F). At 4 h after the injection, draining lymph node cells were prepared and stained with appropriate antibodies to surface markers. The co-expression of NBD and CD11c (FIGS. 7 A and B) or CD86 (FIGS. 7 C and D) were analyzed within total lymph node cells whereas the co-expression of NBD and CD8 (FIGS. 7 E and F) were gated and analyzed within CD3^+ population. The numbers represented the percentages of cells in the quadrants. Draining lymph node cells were harvested and analyzed by flow cytometry at different time points post injection. The numbers of CD11c^+ cells among total lymph node cells increased by more than 2.5-fold compared to untreated mice 4 h after NBD-DOTAP/E7 injection (FIGS. 7 A and B). […] NBD uptake by other cell types such as T lymphocytes was also investigated by costaining with anti-CD3, CD4 and CD8 antibodies.

ERK = assay: Western blot of ERK and p38 activation in BMDC; type: cell-based, mouse; settings: for Effect on DOTAP-induced ERK phosphorylation: FIG. 19C
Description: (§1) BMDC cell lysate was collected after different treatments and total cellular protein was resolved on polyacrylamide/SDS gels and then transferred to polyvinylidene difluoride membranes. The membranes were blocked with 5% nonfat milk in Tris-buffered saline for 1 h and then incubated from 1 h to overnight with primary antibody. After washing the membranes with Tris-buffered saline three times, the membranes were incubated horseradish peroxidase conjugated secondary antibody for 1 h. The peroxidase activity associated with the protein bands was detected by enhanced chemiluminescence using ECL plus (Amershan International) followed by autoradiography.

[3] = system: bone marrow derived dendritic cells (BMDC); type: cell-based, mouse
TC-1 tumor = assay: TC-1 HPV-positive tumor growth in treated mice; type: in vivo, C57BL/6 mice; settings: 100 nmole dose, without E7 peptide
DC2.4 cells = assay: Affymetrix microarray of DC2.4 cells treated with DOTAP liposomes; type: cell-based, mouse
BMDC [4] = assay: RT-PCR of chemokine mRNA in BMDC; type: cell-based, mouse; settings: 50 μM liposomes for 16 h; FIG. 15B
Description: Total RNA was isolated from BMDC by Rneasy Mini Kit from Qiagen according to the manufacturer's instruction. Following digestion with Dnase for 30 min at 37° C., the total RNA concentration was determined by spectrophotometry. Primer pairs for mouse CCL2, CCL3, CCL4 and β-actin (forward primer 5′-[…]-3′ [SEQ. ID. NO. 3] and reverse primer 5′-[…]-3′ [SEQ. ID. NO. 4] for CCL2; forward primer 5′-[…]-3′ [SEQ. ID. NO. 5] and reverse primer 5′-[…]-3′ [SEQ. ID. NO. 6] for CCL3; forward primer 5′-[…]-3′ [SEQ. ID. NO. 7] and reverse primer 5′-[…]-3′ [SEQ. ID. NO. 8] and reverse primer 5′-[…]-3′ [SEQ. ID. NO. 9] for β-actin [Wang H., et al., Potential involvement of monocyte chemoattractant protein (MCP)-1/CCL2 in IL-4-mediated tumor immunity through inducing dendritic cell migration into the draining lymph nodes, Int Immunopharmacol 3:627-42, (2003)] were synthesized by IDT technology. RT-PCR was performed using the one-step RT-PCR kit (commercially available from Invitrogen of Carlsbad, Calif.) where reverse transcription and DNA amplification occur in the same reaction. Briefly, 1 μg of total RNA was used as a template in a reaction that included the appropriate primers in the presence of both reverse transcriptase and Taq polymerase. The mixture was incubated at 45° C. for 30 min and cycled 25 times at 94° C. for 30 s, 55° C. for 30 s, and 72° C. for 2 min. […]

[5] = Western blot of ERK and p38 activation in BMDC; type: cell-based, mouse
Description: as §1

[6] = system: murine bone marrow derived dendritic cells (BMDC); settings: Vangesseri et al 2006; cited from earlier work
[7] = BMDC stimulated 20 h at 37° C., supernatant ELISA, FIG. 1

CCCCCCCC/C=C\CCCCCCCC(=O)OC[C@H](COP(=O)([O-])OCC[N+](C)(C)C)OC(=O)CCCCCCC/C=C\CCCCCCCC [DOPC, dioleoyl phosphatidylcholine]
MCP-1/CCL2 release from BMDC by liposomes (BMDC [1]): did not

CCCCCCCCCCCCCC(=O)OCC(COP(=O)(OCC)OCC[N+](C)(C)C)OC(=O)CCCCCCCCCCCCC (stereo not drawn) [DMEPC, 1,2-dimyristoyl-sn-glycero-3-ethylphosphocholine]
Potency to stimulate expression of CD 80 vs lipids with longer or saturated acyl chains (DC2.4 dendritic cells): more potent

CCCCCCCC/C=C\CCCCCCCC(=O)OCC(CN(C)C)OC(=O)CCCCCCC/C=C\CCCCCCCC (stereo not drawn) [DODAP, dioleoyl dimethylaminopropane]
MCP-1/CCL2 release from BMDC by liposomes (BMDC [1]): did not induce the activity

CCCCCCCC/C=C\CCCCCCCC(=O)OCC(C[N+](C)(C)C)OC(=O)CCCCCNc1ccc([N+](=O)[O-])c2nonc12 (stereo not drawn) [NBD-DOTAP]
NBD uptake by CD3+ cells ([2]; FIG. 7E, F): no NBD uptake | Share taken up by dendritic cells ([2]; soon after immunization): ~80%

GF109203X [reference compound]
Effect on DOTAP-induced ERK phosphorylation (ERK): no effect

CCCCCCCC/C=C\CCCCCCCC(=O)OC[C@H](COP(=O)(O)OC[C@H](N)C(=O)O)OC(=O)CCCCCCC/C=C\CCCCCCCC [DOPS]
MCP-1/CCL2 release from BMDC by liposomes (BMDC [1]): did not

CCCCCCCCCCCC(=O)OC[C@H](COP(=O)(OCC)OCC[N+](C)(C)C)OC(=O)CCCCCCCCCCC (stereo partly drawn) [DLEPC, 1,2-dilauroyl-sn-glycero-3-ethylphosphocholine]
Potency to stimulate expression of CD 80 vs lipids with longer or saturated acyl chains (DC2.4 dendritic cells): more potent

pertussis toxin [reference compound]
Effect on DOTAP-induced ERK phosphorylation (ERK): slight inhibitory effect

CCCCCCCCCCCCCCOC(=O)CC[C@H](NC(=O)[C@@H](N)CCCCN)C(=O)OCCCCCCCCCCCCCC [DMKD, O,O′-dimyristyl-N-lysyl-glutamate]
Expression of CD80/CD86 (DC2.4 dendritic cells): strongly stimulated

CC(C)(C)n1nc(-c2ccc(Cl)cc2)c2c(N)ncnc21 [PP2, reference compound]
Effect on DOTAP-induced CCL2 production (BMDC [1]; pre-incubated 20 min, then 75 μM DOTAP 24 h, PD 20 μM, SB 10 μM, U 10 μM, PTx 200 ng/mL, PP2 10 μM, Wort 200 nM, GF 200 nM, FIG. 18): no inhibitory effect | Effect on DOTAP-induced ERK phosphorylation (ERK): no effect

CCCCCCCC/C=C\CCCCCCCC(=O)OC[C@H](CO)OC(=O)CCCCCCC/C=C\CCCCCCCC [DOG]
MCP-1/CCL2 release from BMDC by liposomes (BMDC [1]; FIG. 16): did not

CCCCCCCCCCCCCCOC(=O)C[C@H](NC(=O)[C@@H](N)CCCCN)C(=O)OCCCCCCCCCCCCCC [DMKE, O,O′-dimyristyl-N-lysyl aspartate]
Expression of CD80/CD86 (DC2.4 dendritic cells): strongly stimulated

CCCCCCCC/C=C\CCCCCCCC(=O)OC[C@H](COP(=O)(O)OCC(O)CO)OC(=O)CCCCCCC/C=C\CCCCCCCC (stereo partly drawn) [DOPG]
MCP-1/CCL2 release from BMDC by liposomes (BMDC [1]; FIG. 16): did not

CCCCCCCC/C=C\CCCCCCCC(=O)OCC(C[N+](C)(C)C)OC(=O)CCCCCCC/C=C\CCCCCCCC (stereo not drawn) [DOTAP, 1,2-dioleoyl-3-trimethylammonium propane]
IL-10 induction [3]: no induction of IL-10 | IL-12 production [3, 7]: production increased in response to DOTAP concentration | TNF-α production [3, 7]: did not induce significant levels | TC-1 tumor growth (TC-1 tumor): did not show significant inhibition of tumor growth | CD11c mRNA (DC2.4 cells; 50 μM DOTAP): induced | IL-1 receptor antagonist (IL1RA) mRNA (DC2.4 cells; 50 μM DOTAP treatment for 16 h): increased | IL-1 β mRNA (DC2.4 cells; 50 μM DOTAP treatment for 16 h): decreased | mRNA of chemokines CCL2, CCL3, CCL4 (DC2.4 cells; 50 μM DOTAP, FIG. 15A): induced overexpression of several chemokines | CCL2 and CCL4 mRNA (RT-PCR) (BMDC [4]): upregulated | CCL2 release (BMDC [1]): induced significant amounts of CCL2 | Concentration at which maximum CCL2 induction was reached (BMDC [1]): 45 to 75 µM | MCP-1/CCL2 release from BMDC by liposomes (BMDC [1]): induced the MCP-1/CCL2 release | Phosphorylation of IκB and subsequent degradation [5]: no phosphorylation of IκB | p38 activation [5]: slightly activated | Time phospho-ERK stayed at a high level (ERK): at least 40 min | Time to ERK phosphorylation (ERK): ≤ 10 min | Expression of co-stimulatory molecules CD80 and CD86 [6]: activated for the expression of the co-stimulatory molecules

CCCCCCCC/C=C\CCCCCCCC(=O)OC[C@@H](COP(=O)(OCC)OCC[N+](C)(C)C)OC(=O)CCCCCCC/C=C\CCCCCCCC (stereo partly drawn) [DOEPC, 1,2-dioleoyl-sn-glycero-3-ethylphosphocholine]
CCL2 and CCL4 mRNA (RT-PCR) (BMDC [4]): upregulated | MCP-1/CCL2 release from BMDC by liposomes (BMDC [1]): induced the MCP-1/CCL2 release | Potency to stimulate expression of CD 80 vs lipids with longer or saturated acyl chains (DC2.4 dendritic cells): more potent | Expression of co-stimulatory molecules CD80 and CD86 [6]: activated for the expression of the co-stimulatory molecules
